Key:
[1] = test system: antibodies in sera from SARS patients (sera 1a, 1b, 2, 6, 37, 62, London, SARS-yellow, SARS-green); assay type: binding, human; set-up: Binding of serum 6 to linear peptides of protein X1 of SARS-CoV Urbani / Binding of serum 37 to linear peptides of protein X1 of SARS-CoV Urbani / Binding of serum 6 to looped/cyclic peptide (PEPSCAN-ELISA) / Binding of serum 37 to looped/cyclic peptide (PEPSCAN-ELISA) / Binding of serum 37 to looped/cyclic peptides of protein X1 of SARS-CoV Urbani / Binding of serum 6 to linear peptides of protein X2 / Binding of serum 37 to linear peptides of protein X2 / Binding of serum 37 to looped/cyclic peptides of protein X2 of SARS-CoV Urbani / Binding of serum 6 to linear peptides of protein M of SARS-CoV Urbani / Binding of serum 37 to linear peptides of protein M of SARS-CoV Urbani / Binding of serum 6 to looped/cyclic peptides of protein M of SARS-CoV Urbani / Binding of serum 37 to looped/cyclic peptides of protein M of SARS-CoV Urbani / Binding of serum 6 to linear peptides of protein X3 of SARS-CoV Urbani / Binding of serum 37 to linear peptides of protein X3 of SARS-CoV Urbani / Binding of serum 37 to looped/cyclic peptides of protein X3 of SARS-CoV Urbani / Binding of serum 6 to linear peptides of protein X4 of SARS-CoV Urbani / Binding of serum 37 to linear peptides of protein X4 of SARS-CoV Urbani / Binding of serum 37 to looped/cyclic peptides of protein X4 of SARS-CoV Urbani / Binding of serum 6 to linear peptides of protein X5 of SARS-CoV Urbani / Binding of serum 37 to linear peptides of protein X5 of SARS-CoV Urbani / Binding of serum 37 to looped/cyclic peptides of protein X5 of SARS-CoV Urbani / Binding of serum 6 to linear peptides of protein N of SARS-CoV Urbani / Binding of serum 37 to linear peptides of protein N of SARS-CoV Urbani / Binding of serum 6 to linear peptide (PEPSCAN-ELISA) / Binding of serum 1a to looped/cyclic peptides of protein N of SARS-CoV Urbani / Binding of serum 1b to looped/cyclic peptides of protein N of SARS-CoV Urbani / Binding of serum 2 to looped/cyclic peptides of protein N of SARS-CoV Urbani / Binding of serum 6 to looped/cyclic peptides of protein N of SARS-CoV Urbani / Binding of serum 37 to looped/cyclic peptides of protein N of SARS-CoV Urbani / Binding of serum 62 to looped/cyclic peptides of protein N of SARS-CoV Urbani / Binding of serum London to looped/cyclic peptides of protein N of SARS-CoV Urbani / Binding of serum SARS-green to looped/cyclic peptides of protein N of SARS-CoV Urbani: unit not given here
[2] = test system: control sera (pooled serum of ten healthy LUMC hospital workers; commercial negative donor pooled serum from the Dutch bloodbank); assay type: binding, human; set-up: Binding of Control serum LUMC to linear peptides / Binding of Control serum Blood-bank to linear peptides / Binding of Control serum LUMC to looped peptides / Binding of Control Serum Blood-Bank to Looped peptides / Binding of Control serum LUMC to linear peptides of the protein M of SARS-CoV Urbani / Binding of Control serum Blood-bank to linear peptides of the protein M of SARS-CoV Urbani / Binding of Control serum LUMC to looped peptides of the protein M of SARS-CoV Urbani / Binding of Control Serum Blood-Bank to Looped peptides of the protein M of SARS-CoV Urbani: unit not given here
[3] = test system: rabbit serum obtained by immunizing a rabbit with the SARS-CoV strain Frankfurt 1; assay type: binding; set-up: Binding of a rabbit serum to linear peptides / Binding of a rabbit serum to looped peptides / Rabbit serum linear peptides / Rabbit serum looped peptides / Binding of a rabbit serum to linear peptides of protein N of SARS-CoV Urbani (Rabbit serum linear peptides) / Binding of a rabbit serum to looped/cyclic peptides of protein N of SARS-CoV Urbani (Rabbit serum looped peptides): unit not given here
[4] = test system: recombinant human anti-SARS-CoV antibody 03-018; assay type: binding; set-up: Binding of antibody 03-018 to linear peptides of the N protein of SARS-CoV Urbani / Binding of antibody 03-018 to looped/cyclic peptides of the N protein of SARS-CoV Urbani: unit not given here

LLLDRLNQLESKVSG
Binding of serum 1a to linear peptide (PEPSCAN-ELISA) [1]: 0.3 | Binding of serum 1a to looped/cyclic peptides of protein N of SARS-CoV Urbani [1]: 0.3 | Binding of serum 1b to linear peptide (PEPSCAN-ELISA) [1]: 0.2 | Binding of serum 1b to looped/cyclic peptides of protein N of SARS-CoV Urbani [1]: 0.1 | Binding of serum 2 to linear peptide (PEPSCAN-ELISA) [1]: 0.4 | Binding of serum 2 to looped/cyclic peptides of protein N of SARS-CoV Urbani [1]: 0.4 | Binding of serum 6 to linear peptide (PEPSCAN-ELISA) [1]: 0.2 | Binding of serum 6 to looped/cyclic peptides of protein N of SARS-CoV Urbani [1]: 0.1 | Binding of serum 37 to linear peptide (PEPSCAN-ELISA) [1]: 0.8 | Binding of serum 37 to looped/cyclic peptides of protein N of SARS-CoV Urbani [1]: 0.5 | Binding of serum 62 to linear peptide (PEPSCAN-ELISA) [1]: 0.6 | Binding of serum 62 to looped/cyclic peptides of protein N of SARS-CoV Urbani [1]: 0.3 | Binding of serum London to linear peptide (PEPSCAN-ELISA) [1]: 0.9 | Binding of serum London to looped/cyclic peptides of protein N of SARS-CoV Urbani [1]: 0.3 | Binding of serum SARS-green to linear peptide (PEPSCAN-ELISA) [1]: 1.1 | Binding of serum SARS-green to looped/cyclic peptides of protein N of SARS-CoV Urbani [1]: 0.6 | Binding of serum SARS-yellow to linear peptide (PEPSCAN-ELISA) [1]: 0.7 | Binding of serum SARS-yellow to looped/cyclic peptides of protein N of SARS-CoV Urbani [1]: 0.2 | Binding of Control Serum Blood-Bank to Looped peptides [2]: 0.5 | Binding of Control serum Blood-bank to linear peptides [2]: 0.8 | Binding of Control serum LUMC to linear peptides [2]: 0.9 | Binding of Control serum LUMC to looped peptides [2]: 0.5 | Binding of a rabbit serum to linear peptides of protein N of SARS-CoV Urbani (Rabbit serum linear peptides) [3]: 0.2 | Binding of a rabbit serum to looped/cyclic peptides of protein N of SARS-CoV Urbani (Rabbit serum looped peptides) [3]: 0.2 | Binding of antibody 03-018 to linear peptides of the N protein of SARS-CoV Urbani [4]: 0.1 | Binding of antibody 03-018 to looped/cyclic peptides of the N protein of SARS-CoV Urbani [4]: 0.2

LLPAADMDDFSRQLQ
Binding of serum 1a to linear peptides of protein N of SARS-CoV Urbani [1]: 0.3 | Binding of serum 1a to looped/cyclic peptides of protein N of SARS-CoV Urbani [1]: 0.3 | Binding of serum 1b to linear peptides of protein N of SARS-CoV Urbani [1]: 0.2 | Binding of serum 1b to looped/cyclic peptides of protein N of SARS-CoV Urbani [1]: 0.1 | Binding of serum 2 to linear peptides of protein N of SARS-CoV Urbani [1]: 0.3 | Binding of serum 2 to looped/cyclic peptides of protein N of SARS-CoV Urbani [1]: 0.4 | Binding of serum 6 to linear peptides of protein N of SARS-CoV Urbani [1]: 0.3 | Binding of serum 6 to looped/cyclic peptides of protein N of SARS-CoV Urbani [1]: 0.1 | Binding of serum 37 to linear peptides of protein N of SARS-CoV Urbani [1]: 0.8 | Binding of serum 37 to looped/cyclic peptides of protein N of SARS-CoV Urbani [1]: 0.5 | Binding of serum 62 to linear peptides of protein N of SARS-CoV Urbani [1]: 0.6 | Binding of serum 62 to looped/cyclic peptides of protein N of SARS-CoV Urbani [1]: 0.2 | Binding of serum London to linear peptides of protein N of SARS-CoV Urbani [1]: 0.6 | Binding of serum London to looped/cyclic peptides of protein N of SARS-CoV Urbani [1]: 0.3 | Binding of serum SARS-green to linear peptides of protein N of SARS-CoV Urbani [1]: 0.4 | Binding of serum SARS-green to looped/cyclic peptides of protein N of SARS-CoV Urbani [1]: 0.2 | Binding of serum SARS-yellow to linear peptides of protein N of SARS-CoV Urbani [1]: 0.6 | Binding of serum SARS-yellow to looped/cyclic peptides of protein N of SARS-CoV Urbani [1]: 0.3 | Control Serum Blood-Bank Looped peptides [2]: 0.4 | Control serum Blood-bank linear peptides [2]: 0.7 | Control serum LUMC linear peptides [2]: 0.6 | Control serum LUMC looped peptides [2]: 0.4 | Binding of a rabbit serum to linear peptides of protein N of SARS-CoV Urbani (Rabbit serum linear peptides) [3]: 0.1 | Binding of a rabbit serum to looped/cyclic peptides of protein N of SARS-CoV Urbani (Rabbit serum looped peptides) [3]: 0.2 | Binding of antibody 03-018 to linear peptides of the N protein of SARS-CoV Urbani [4]: 0.1 | Binding of antibody 03-018 to looped/cyclic peptides of the N protein of SARS-CoV Urbani [4]: 0.2

LNKHIDAYKTFPPTE
Binding of serum 1a to linear peptides of protein N of SARS-CoV Urbani [1]: 0.2 | Binding of serum 1a to looped/cyclic peptides of protein N of SARS-CoV Urbani [1]: 0.2 | Binding of serum 1b to linear peptides of protein N of SARS-CoV Urbani [1]: 0.1 | Binding of serum 1b to looped/cyclic peptides of protein N of SARS-CoV Urbani [1]: 0.1 | Binding of serum 2 to linear peptides of protein N of SARS-CoV Urbani [1]: 0.1 | Binding of serum 2 to looped/cyclic peptides of protein N of SARS-CoV Urbani [1]: 0.2 | Binding of serum 6 to linear peptides of protein N of SARS-CoV Urbani [1]: 0.1 | Binding of serum 6 to looped/cyclic peptides of protein N of SARS-CoV Urbani [1]: 0.1 | Binding of serum 37 to linear peptides of protein N of SARS-CoV Urbani [1]: 0.7 | Binding of serum 37 to looped/cyclic peptides of protein N of SARS-CoV Urbani [1]: 0.4 | Binding of serum 62 to linear peptides of protein N of SARS-CoV Urbani [1]: 0.5 | Binding of serum 62 to looped/cyclic peptides of protein N of SARS-CoV Urbani [1]: 0.3 | Binding of serum London to linear peptides of protein N of SARS-CoV Urbani [1]: 0.4 | Binding of serum London to looped/cyclic peptides of protein N of SARS-CoV Urbani [1]: 0.3 | Binding of serum SARS-green to linear peptides of protein N of SARS-CoV Urbani [1]: 0.4 | Binding of serum SARS-green to looped/cyclic peptides of protein N of SARS-CoV Urbani [1]: 0.2 | Binding of serum SARS-yellow to linear peptides of protein N of SARS-CoV Urbani [1]: 0.5 | Binding of serum SARS-yellow to looped/cyclic peptides of protein N of SARS-CoV Urbani [1]: 0.1 | Control Serum Blood-Bank Looped peptides [2]: 0.4 | Control serum Blood-bank linear peptides [2]: 0.5 | Control serum LUMC linear peptides [2]: 0.5 | Control serum LUMC looped peptides [2]: 0.4 | Binding of a rabbit serum to linear peptides of protein N of SARS-CoV Urbani (Rabbit serum linear peptides) [3]: 0.1 | Binding of a rabbit serum to looped/cyclic peptides of protein N of SARS-CoV Urbani (Rabbit serum looped peptides) [3]: 0.4 | Binding of antibody 03-018 to linear peptides of the N protein of SARS-CoV Urbani [4]: 0.1 | Binding of antibody 03-018 to looped/cyclic peptides of the N protein of SARS-CoV Urbani [4]: 0.2

LNQLESKVSGKGQQQ
Binding of serum 1a to linear peptide (PEPSCAN-ELISA) [1]: 0.3 | Binding of serum 1a to looped/cyclic peptides of protein N of SARS-CoV Urbani [1]: 0.4 | Binding of serum 1b to linear peptide (PEPSCAN-ELISA) [1]: 0.1 | Binding of serum 1b to looped/cyclic peptides of protein N of SARS-CoV Urbani [1]: 0.3 | Binding of serum 2 to linear peptide (PEPSCAN-ELISA) [1]: 0.3 | Binding of serum 2 to looped/cyclic peptides of protein N of SARS-CoV Urbani [1]: 0.6 | Binding of serum 6 to linear peptide (PEPSCAN-ELISA) [1]: 0.2 | Binding of serum 6 to looped/cyclic peptides of protein N of SARS-CoV Urbani [1]: 0.4 | Binding of serum 37 to linear peptide (PEPSCAN-ELISA) [1]: 0.7 | Binding of serum 37 to looped/cyclic peptides of protein N of SARS-CoV Urbani [1]: 0.6 | Binding of serum 62 to linear peptide (PEPSCAN-ELISA) [1]: 0.9 | Binding of serum 62 to looped/cyclic peptides of protein N of SARS-CoV Urbani [1]: 0.6 | Binding of serum London to linear peptide (PEPSCAN-ELISA) [1]: 0.6 | Binding of serum London to looped/cyclic peptides of protein N of SARS-CoV Urbani [1]: 0.5 | Binding of serum SARS-green to linear peptide (PEPSCAN-ELISA) [1]: 0.4 | Binding of serum SARS-green to looped/cyclic peptides of protein N of SARS-CoV Urbani [1]: 0.5 | Binding of serum SARS-yellow to linear peptide (PEPSCAN-ELISA) [1]: 0.7 | Binding of serum SARS-yellow to looped/cyclic peptides of protein N of SARS-CoV Urbani [1]: 0.8 | Binding of Control Serum Blood-Bank to Looped peptides [2]: 0.7 | Binding of Control serum Blood-bank to linear peptides [2]: 0.8 | Binding of Control serum LUMC to linear peptides [2]: 0.7 | Binding of Control serum LUMC to looped peptides [2]: 0.7 | Binding of a rabbit serum to linear peptides of protein N of SARS-CoV Urbani (Rabbit serum linear peptides) [3]: 0.2 | Binding of a rabbit serum to looped/cyclic peptides of protein N of SARS-CoV Urbani (Rabbit serum looped peptides) [3]: 0.4 | Binding of antibody 03-018 to linear peptides of the N protein of SARS-CoV Urbani [4]: 0.1 | Binding of antibody 03-018 to looped/cyclic peptides of the N protein of SARS-CoV Urbani [4]: 0.3
